In DBAASP one finds MIC data, which are given here for six molecules.

Values after ≈ are worked out from the molar mass of the structure shown. Where only a bound is given, the exact number is not on record here.

What all share (assay): ≥ marks a high value that may be exact or a test limit, other limits are often not marked, values filed in µg/mL are converted to µM
The subject of assay [1] is Klebsiella pneumoniae.
The subject of assay [2] is Pseudomonas aeruginosa.
Assay [3] concerns Pseudomonas aeruginosa PAO1.
In assay [4] the test system is Escherichia coli K88.
Assay [5] has as its system Escherichia coli UB1005.
For assay [6], the system named is Escherichia coli ATCC 25922.
Assay [7] concerns Pseudomonas aeruginosa CICC 21625.
Assay [8] has as its system Salmonella enterica subsp. enterica serovar Typhimurium C77-31.
Assay [9] concerns Salmonella enterica subsp. enterica serovar Typhimurium ATCC 14028.
In assay [10] the test system is Salmonella enterica subsp. enterica serovar Pullorum C79-13.
The subject of assay [11] is Escherichia coli.
For assay [12], the system named is Pseudomonas aeruginosa CICC 21630.
Assay [13] concerns Escherichia coli K99.
In assay [14] the test system is Acinetobacter baumannii.
For assay [15], the system named is Pseudomonas aeruginosa ATCC 27853.
Assay [16] deals with Escherichia coli NCTC 10418.
The test system of assay [17] is Staphylococcus aureus NCTC 10788.
In assay [18] the test system is Candida albicans NCTC 1467.
Assay [19] relates to Enterococcus faecalis NCTC 12697.
For assay [20], the system named is Staphylococcus aureus ATCC 12493.
The test system of assay [21] is Pseudomonas aeruginosa H188.
The test system of assay [22] is Escherichia coli DH5alpha.
Assay [23] deals with Serratia marcescens.
Assay [24] relates to Staphylococcus aureus MR.
The test system of assay [25] is Staphylococcus aureus.
Assay [26] deals with Enterococcus faecium.
Assay [27] deals with Enterococcus faecalis.
The subject of assay [28] is Streptococcus pneumoniae.
The test system of assay [29] is Stenotrophomonas maltophilia.

One may read the MIC as the least concentration at which growth counts as inhibited. Read a high MIC as a less susceptible organism. In the case of `CC(C)[C@H](N)C(=O)N[C@@H](CCCN=C(N)N)C(=O)N1CCC[C@H]1C(=O)N[C@H](C(=O)N[C@H](C(=O)N[C@@H](CCCN=C(N)N)C(=O)N1CCC[C@H]1C(=O)N[C@H](C(=O)N[C@H](C(=O)N[C@@H](CCCN=C(N)N)C(=O)N1CCC[C@H]1C(=O)N[C@H](C(=O)N[C@H](C(=O)N[C@@H](CCCN=C(N)N)C(=O)N1CCC[C@H]1C(=O)N[C@H](C(=O)N[C@H](C(=O)N[C@@H](CCCN=C(N)N)C(=O)N1CCC[C@H]1C(=O)N[C@H](C(=O)N[C@H](C(=O)N[C@@H](CCCN=C(N)N)C(=O)N1CCC[C@H]1C(=O)N[C@H](C(N)=O)C(C)C)C(C)C)C(C)C)C(C)C)C(C)C)C(C)C)C(C)C)C(C)C)C(C)C)C(C)C)C(C)C` [VRPVVRPVVRPVVRPVVRPVVRPV], the MIC in assay [1] is more than 64 µM; in assay [2], more than 64 µM; in [3], more than 64 µM; in assay [4], 8 µM (≈ 21.8 µg/mL); in [5], not below 32 µM; in assay [6], 64 µM (≈ 174 µg/mL). Also, the MIC is not below 64 µM in [7]; not below 32 µM in assay [8]; 16 µM (≈ 43.6 µg/mL) in assay [9]; 8 µM (≈ 21.8 µg/mL) in [10]; 64 µM (≈ 174 µg/mL) in assay [11]; not below 64 µM in assay [12]. Also, the results for the MIC in [13], in [14] and in assay [15] were 16 µM (≈ 43.6 µg/mL), 4 µM (≈ 10.9 µg/mL) and more than 64 µM, respectively.

As for `CC[C@H](C)[C@H](NC(=O)CN)C(=O)N[C@@H](CCSC)C(=O)N[C@@H](CC(=O)O)C(=O)N[C@H](C(=O)N[C@H](C(=O)N[C@@H](CCCCN)C(=O)N[C@@H](CC(N)=O)C(=O)N[C@@H](C)C(=O)N[C@@H](C)C(=O)N[C@@H](CCCCN)C(=O)N[C@@H](CC(N)=O)C(=O)N[C@@H](CC(C)C)C(=O)N[C@@H](C)C(=O)NCC(=O)N[C@@H](CCC(N)=O)C(=O)N[C@@H](CC(C)C)C(=O)N[C@@H](CC(C)C)C(=O)N[C@@H](CC(=O)O)C(=O)N[C@@H](CCCCN)C(=O)N[C@@H](CC(C)C)C(=O)N[C@@H](CCCCN)C(=O)O)C(C)C)[C@@H](C)O` [GIMDTVKNAAKNLAGQLLDKLK], the MIC in assay [16] was not below 128 µM; in assay [17] it was not below 256 µM; in assay [18], not below 512 µM; in assay [19], not below 512 µM; in assay [20], not below 512 µM; in [15], more than 512 µM.

Consider `CC[C@H](C)[C@H](NC(=O)[C@H](C)NC(=O)[C@H](CCCCN)NC(=O)[C@H](CC(C)C)NC(=O)[C@H](C)NC(=O)[C@@H](NC(=O)[C@H](Cc1cnc[nH]1)NC(=O)[C@H](CC(C)C)NC(=O)[C@H](CCCCN)NC(=O)[C@@H](NC(=O)[C@H](CCCCN)NC(=O)[C@H](CCCCN)NC(=O)[C@H](C)NC(=O)[C@H](CO)NC(=O)[C@H](CCCCN)NC(=O)[C@H](Cc1ccccc1)NC(=O)[C@@H](NC(=O)[C@H](CCCCN)NC(=O)[C@H](CC(C)C)NC(=O)[C@H](Cc1ccccc1)NC(=O)[C@H](CO)NC(=O)[C@H](CCCCN)NC(=O)[C@H](Cc1c[nH]c2ccccc12)NC(=O)[C@H](CCCCN)NC(C)=O)[C@@H](C)O)[C@@H](C)O)[C@@H](C)O)C(=O)N[C@@H](CO)C(=O)N[C@@H](CO)C(N)=O` [KWKSFLKTFKSAKKTKLHTALKAISS], for which the MIC in assay [21] was 5.37 µM (≈ 16.2 µg/mL); in assay [6], 10.7 µM (≈ 32.4 µg/mL); in assay [11], 2.69 µM (≈ 8.11 µg/mL); in assay [22], 5.37 µM (≈ 16.2 µg/mL); in assay [15], 10.7 µM (≈ 32.4 µg/mL).

For `CC[C@H](C)[C@H](NC(=O)[C@H](CCCCN)NC(=O)[C@H](CCCCN)NC(=O)[C@H](C)NC(=O)[C@@H](NC(=O)[C@H](C)NC(=O)[C@H](CC(C)C)NC(=O)[C@H](CC(C)C)NC(=O)[C@H](C)NC(=O)[C@H](CCCCN)NC(=O)[C@H](CC(C)C)NC(=O)[C@H](CC(N)=O)NC(=O)[C@H](CC(C)C)NC(=O)[C@H](CCCN=C(N)N)NC(=O)[C@H](CCCN=C(N)N)NC(=O)[C@H](CCCN=C(N)N)NC(=O)[C@H](CCC(N)=O)NC(=O)[C@H](CCCN=C(N)N)NC(=O)[C@H](CCCN=C(N)N)NC(=O)[C@H](CCCCN)NC(=O)[C@H](CCCCN)NC(=O)[C@@H](N)CCCN=C(N)N)C(C)C)C(=O)N[C@@H](CC(C)C)C(N)=O` [RKKRRQRRRLNLKALLAVAKKIL], the MIC in assay [16] came to 2 µM (≈ 5.66 µg/mL); in [17], 4 µM (≈ 11.3 µg/mL); in assay [18] it was 2 µM (≈ 5.66 µg/mL); in assay [19], 8 µM (≈ 22.6 µg/mL); in [20], 4 µM (≈ 11.3 µg/mL); in assay [15] it was 4 µM (≈ 11.3 µg/mL).

Take `CC[C@H](C)[C@H](NC(=O)[C@H](C)NC(=O)[C@H](CCCCN)NC(=O)[C@H](CC(C)C)NC(=O)[C@H](C)NC(=O)[C@@H](NC(=O)[C@H](Cc1cnc[nH]1)NC(=O)[C@H](CC(C)C)NC(=O)[C@H](CO)NC(=O)[C@@H](NC(=O)[C@H](CCCCN)NC(=O)[C@H](CCCCN)NC(=O)[C@H](C)NC(=O)[C@H](CO)NC(=O)[C@H](CCCCN)NC(=O)[C@H](Cc1ccccc1)NC(=O)[C@@H](NC(=O)[C@H](CCCCN)NC(=O)[C@H](CC(C)C)NC(=O)[C@H](Cc1ccccc1)NC(=O)[C@H](CO)NC(=O)[C@H](CCCCN)NC(=O)[C@H](Cc1c[nH]c2ccccc12)NC(=O)[C@H](CCCCN)NC(C)=O)[C@@H](C)O)[C@@H](C)O)[C@@H](C)O)C(=O)N[C@@H](CO)C(=O)N[C@@H](CO)C(N)=O` [KWKSFLKTFKSAKKTSLHTALKAISS]: the MIC was determined as 1.36 µM (≈ 4.06 µg/mL) in assay [21]; 2.72 µM (≈ 8.11 µg/mL) in [6]; 5.45 µM (≈ 16.2 µg/mL) in [11]; 2.72 µM (≈ 8.11 µg/mL) in assay [22]; 10.9 µM (≈ 32.4 µg/mL) in assay [15].

Take `CC[C@H](C)[C@H](NC(=O)[C@H](CC(C)C)NC(=O)CNC(=O)[C@H](CO)NC(=O)[C@@H](NC(=O)[C@H](CC(C)C)NC(=O)[C@@H](N)CC(N)=O)C(C)C)C(=O)N[C@@H](CCC(=O)O)C(=O)N[C@@H](C)C(=O)N[C@@H](CCCN=C(N)N)C(=O)N[C@@H](CCCCN)C(=O)N[C@@H](Cc1ccc(O)cc1)C(=O)N[C@@H](CC(C)C)C(=O)N[C@@H](CCC(=O)O)C(=O)N[C@@H](CCC(N)=O)C(=O)N[C@@H](CC(C)C)C(=O)N[C@@H](Cc1cnc[nH]1)C(=O)N[C@@H](CCCN=C(N)N)C(=O)N[C@@H](CCCCN)C(=O)N[C@@H](CC(C)C)C(=O)N[C@@H](CCCCN)C(=O)N[C@@H](CC(N)=O)C(=O)N[C@@H](CS)C(=O)N[C@@H](CCCCN)C(=O)N[C@H](C(=O)O)C(C)C` [NLVSGLIEARKYLEQLHRKLKNCKV]: the MIC is 3.84 µM (≈ 11.3 µg/mL) in assay [1]; 15.3 µM (≈ 45.3 µg/mL) in [2]; 7.65 µM (≈ 22.6 µg/mL) in [23]; 3.84 µM (≈ 11.3 µg/mL) in assay [24]; 3.84 µM (≈ 11.3 µg/mL) in assay [25]; 2.71 µM (≈ 8.02 µg/mL) in assay [11]. The minimal inhibitory concentration (MIC) came out at 10.8 µM (≈ 32 µg/mL) in [26]; 3.84 µM (≈ 11.3 µg/mL) in [27]; 3.84 µM (≈ 11.3 µg/mL) in assay [28]; 10.8 µM (≈ 32 µg/mL) in assay [29]; 15.3 µM (≈ 45.3 µg/mL) in assay [14].
